Test results from patent US8093262B2 (priority 2005, dated 2012).
Where two headings read alike, the source gives them in different places.

What was measured:
mice [1] = conditions: established antiepileptic drugs; cited from earlier work
[2] = assay type: physicochemical
rats [3] = assay: Toxicity (TOX) / minimal motor impairment, rats; assay type: in vivo; conditions: for Behavioral motor impairment, animals affected: rat, in vivo, po
Procedure: (§1) Peak anticonvulsant activity was observed one-hour after p.o. administration of 1 mg/kg.

mice [4] = assay: Subcutaneous Metrazol (SCMET / scPTZ) seizure test, mice, i.p.; assay type: in vivo
Procedure: (§2) Seizure testing was carried out as follows.

mice [5] = assay type: in vivo; conditions: for N/F, Time to Peak Effect: IP, 32 mA, 0.83 mg/kg; for COMMENT (observed effects): ip
Procedure: as §2

Swiss Webster NIH mice = assay: Formalin test for antinociceptive activity (paw licking/biting); assay type: in vivo; conditions: 1 mg/kg i.p.
Procedure: The formalin test for antinociceptive activity is described in numerous publications, e.g., Hunskaar, S., O. B. Fasmer, and K. Hole, J. Neurosci. […] The formalin test is accepted as an art recognized model of persistent clinical pain.
Male Swiss Webster NIH mice (20-30 g; Harlan, San Diego, Calif.) were used in the experiments described herein. Food was withdrawn on the day of experiment. Mice were placed in Plexiglass jars for at least 1 hour to accommodate to the environment. Following the accommodation period, mice were weighed and given either a huperzine compound administered intraperitoneal (i.p.) or oral (p.o.), or the appropriate volume of vehicle (10% Tween-80). Fifteen minutes after the i.p. dosing, and 30 minutes after the p.o. dosing mice were injected with formalin (20 μL of 5% formaldehyde solution in saline) into the dorsal surface of the right hind paw. Mice were transferred to the Plexiglass jars and monitored for the amount of time spent licking or biting the injected paw. Periods of licking and biting were recorded in 5 minute intervals for 40 minutes after the formalin injection. […] The early phase (acute) of the formalin response is measured as licking/biting between 0-5 minutes, and the late phase (inflammatory) is measured from 10-40 minutes. Differences between vehicle and drug treated groups are analyzed by one-way analysis of variance (ANOVA). […]

rats [6] = assay: Subcutaneous Metrazol (SCMET / scPTZ) seizure test, rats, oral; assay type: in vivo
Procedure: as §1

patients = conditions: human, in vivo; cited from earlier work
mice [7] = assay: Toxicity model (TOX), rotorod, mice; assay type: in vivo; conditions: for TOX observation code: i.p.; for TOX N/F (mice showing an effect / mice tested): mouse, in vivo, ip
mice [8] = assay: Maximal Electroshock (MES) seizure test, mice, i.p.; assay type: in vivo; conditions: 1 mg/kg
Procedure: This toxicity profile is generally not observed in humans. Thus, a higher relative dose of a huperzine compound is tolerated in humans compared to rodents.
as §2

O=C1NC(=O)C(c2ccccc2)(c2ccccc2)N1 [phenyloin]
Efficacy in the 6 Hz psychomotor seizure model (mice [1]): limited efficacy

NC(=O)N1c2ccccc2C=Cc2ccccc21 [carbamazepine]
Efficacy in the 6 Hz psychomotor seizure model (mice [1]): limited efficacy

CC1(C)O[C@@H]2[C@@H](CO[C@@]3(COS(N)(=O)=O)OC(C)(C)O[C@@H]23)O1 [topiramate]
Efficacy in the 6 Hz psychomotor seizure model (mice [1]): limited efficacy

Nc1nnc(-c2cccc(Cl)c2Cl)c(N)n1 [lamotrigine]
Efficacy in the 6 Hz psychomotor seizure model (mice [1]): limited efficacy

C/C=C1\[C@H]2C=C(C)C[C@]1(N)c1ccc(=O)[nH]c1C2 [Huperzine A]
Solubility in the methyl cellulose solvent [2]: not soluble
Toxicity (rats [3]; oral, 1 mg/kg, any of the animals): no toxicity
Behavioral motor impairment, animals affected (rats [3]; 2 mg/kg): 75%
Behavioral motor impairment, animals affected (rats [3]; 4 mg/kg): 100%
SCMET N/F (mice showing an effect / mice tested) (mice [4]; 1 mg/kg SOL, 0.5 h): 3/5
SCMET N/F (mice showing an effect / mice tested) (mice [4]; 3 mg/kg SUS, 0.5 h): 1/1
SCMET N/F (mice showing an effect / mice tested) (mice [4]; 10 mg/kg SUS, 4.0 h): 1/1
Protection in the mouse 6 Hz test (FIG. 1) (mice [5]; 0.8 mg/kg): time-dependent protection
N/F, Time to Peak Effect (mice [5]; 0.25 h): 1/4
N/F, Time to Peak Effect (mice [5]; 0.5 h): 1/4
N/F, Time to Peak Effect (mice [5]; 1.0 h): 4/4
N/F, Time to Peak Effect (mice [5]; 2.0 h): 2/4
N/F, Time to Peak Effect (mice [5]; 4.0 h): 0/4
Protection against 6 Hz seizures (FIG. 2) (mice [5]; mouse, in vivo): dose-dependent protection
COMMENT (observed effects) (mice [5]; mouse, in vivo, 0.18 mg/kg): Minimal motor impairment
COMMENT (observed effects) (mice [5]; mouse, in vivo, 0.2 mg/kg): Tremors
COMMENT (observed effects) (mice [5]; mouse, in vivo, 0.35 mg/kg): Minimal motor impairment
Inhibition of phase 1 (acute) pain response (Swiss Webster NIH mice): complete inhibition
Inhibition of phase 2 (inflammatory) pain response (Swiss Webster NIH mice): complete inhibition
Time of peak anticonvulsant activity (rats [6]; after p.o. administration of 1 mg/kg): one-hour
Time of peak activity post administration (rats [6]; oral, 1 mg/kg, rat MES and SCMET time course): between 30 minutes and two hours
Adverse effects in patients (patients): adverse effects were noted infrequently
TOX observation code (mice [7]; 1 mg/kg SOL, 0.5 h): 4/4 (T)^2
TOX observation code (mice [7]; 1 mg/kg SOL, 4.0 h): 2/2 (T)
TOX observation code (mice [7]; 3 mg/kg SUS, 4.0 h): 4/4 (T)
TOX observation code (mice [7]; 10 mg/kg SUS, 4.0 h): 2/2 (T)
TOX observation code (mice [7]; 30 mg/kg SUS, 0.5 h): 4/4 (D)^3
TOX observation code (mice [7]; 100 mg/kg SUS, 0.5 h): 8/8 (D)
TOX observation code (mice [7]; 300 mg/kg SUS, 0.5 h): 4/4 (D)
TD50 (mice [7]; mice): 0.83 mg/kg
TOX N/F (mice showing an effect / mice tested) (mice [7]; 0.1 mg/kg, 4 h): 0/4
TOX N/F (mice showing an effect / mice tested) (mice [7]; 0.3 mg/kg, 4 h): 0/4
TOX N/F (mice showing an effect / mice tested) (mice [7]; 1 mg/kg, 0.5 h): 4/4 (T)^2
TOX N/F (mice showing an effect / mice tested) (mice [7]; 1 mg/kg, 4 h): 2/2 (T)
TOX N/F (mice showing an effect / mice tested) (mice [7]; 3 mg/kg, 0.5 h): 8/8
TOX N/F (mice showing an effect / mice tested) (mice [7]; 3 mg/kg, 4 h): 4/4 (T)
TOX N/F (mice showing an effect / mice tested) (mice [7]; 10 mg/kg, 0.5 h): 4/4
TOX N/F (mice showing an effect / mice tested) (mice [7]; 10 mg/kg, 4 h): 2/2 (T)
TOX N/F (mice showing an effect / mice tested) (mice [7]; 30 mg/kg, 0.5 h): 4/4 (D)^3
TOX N/F (mice showing an effect / mice tested) (mice [7]; 100 mg/kg, 0.5 h): 8/8 (D)
TOX N/F (mice showing an effect / mice tested) (mice [7]; 300 mg/kg, 0.5 h): 4/4 (D)
Protection in the mouse MES test (FIG. 1) (mice [8]): time-dependent protection
